{"source": "patent US20010006673A1", "about": "“LUTEIN- CONTAINING SUPPLEMENT AND PROCESS FOR ENHANCING IMMUNE RESPONSE IN ANIMALS” (priority 1998, published 2001)", "key": {"IL-2 [1]": {"tested_on": "IL-2", "test": "IL-2 production by PHA-stimulated whole blood cultures, dogs", "assay_type": "in vivo, Beagle dogs", "experimental": "Whole blood was diluted 1:2 with RPMI-1640 supplemented with Hepes and antibiotics (described earlier) and 400 μL of diluted blood were pipetted into 48-well plates (Costar, Cambridge, Mass.). Cells were stimulated with PHA (400 μL of a 5 μg/mL solution) for 48 hours at […] in a 5% CO2 atmosphere. The plates were centrifuged at 200×g for 10 minutes and the supernatant was frozen at −80° C. The IL-2 content of the culture supernatant was determined in triplicate by ELISA (Intergen, Purchase, N.Y.). The polyclonal anti-human IL-2 cross-reacted with canine IL-2 and recombinant human IL-2 was used as the standard."}, "IL-2 [2]": {"tested_on": "IL-2", "test": "IL-2 production in Con A-stimulated whole blood cultures, cats", "assay_type": "in vivo, Tabby cats", "experimental": "Whole blood was diluted 1:2 in RPMI-1640 complete medium and cultured for 48 hours in the presence of 5 μg/mL Con A. The conditioned medium was removed and frozen at −80° C. The IL-2 concentrations were determined in duplicate by ELISA using a human IL-2 kit (Intergen, Purchase, N.Y). The human anti-IL-2 was previously determined to cross-react with feline IL-2."}, "malondialdehyde": {"tested_on": "malondialdehyde", "test": "Lipid peroxidation (TBARS), cat plasma", "assay_type": "in vivo, Tabby cats", "settings": "cats", "experimental": "Lipid peroxidation was assessed by the TBARS (thiobarbituric acid-reactive substances) assay on plasma collected on weeks 0, 2, 4, 8 and 12. Duplicate 500 μL of cat plasma was boiled for 45 minutes with 3 mL of phosphoric acid (10 g/L) and 1 mL of TBA (6 g/L). After cooling, the TBA-MDA (malondialdehyde) complex was extracted with 4 mL of n-butanol. The butanol layer was separated by centrifugation (1,000×g for 10 minutes) and absorbance read (Beckman, Fullerton, Calif.) at 532 nm. […] Louis, Mo.)."}, "[3]": {"test": "Plasma extraction and HPLC analysis in dogs (lutein+zeaxanthin, retinol, α-tocopherol)", "assay_type": "in vivo, Beagle dogs", "experimental": "Fifty six female Beagle dogs (17 to 18 months old; average body weight 11.4±0.4 kg) were randomly assigned to be supplemented daily with 0, 5, 10 or 20 mg lutein for 17 weeks. The lutein contained 76.66% lutein and 5.23% zeaxanthin. The lutein supplement was resuspended in soybean oil to the appropriate concentration and 1 mL administered perorally at 0800 h daily. Food (200 g/dog/d) was offered immediately after the lutein supplementation. The basal diet shown in Table 1 below met or exceeded the requirements for all essential nutrients (NRC 1985).\nBlood was collected by jugular venipuncture into heparinized evacuated tubes on weeks 0, 2, 4, 8 and 12 and aliquots used for HPLC analysis and for assessing immune responses.\nPlasma was extracted for analysis of lutein, zeaxanthin, retinol and α-tocopherol. Briefly, plasma protein was precipitated by adding an equal volume of ethanol containing 0.1% butylated hydroxytoluene (BHT) (Aldrich Chemical Co., Milwaukee, Wis.). The mixture was extracted with 5 mL of a 1:1 mixture of petroleum ether:anhydrous diethyl ether.\nThe dried residue was resuspended in mobile phase consisting of a 47:47:6 (v:v:v) mixture of HPLC-grade acetonitrile: methanol: chloroform (Fisher Scientific, Fair Lawn, N.J.). Lutein, zeaxanthin and α-tocopherol were quantitated by comparing the area under the curve whereas retinol was quantitated using peak height. The identity of the eluted compounds was confirmed by comparing their absorption spectrum with that of pure standards. Because baseline separation of lutein and zeaxanthin was not accomplished, plasma concentrations were reported as lutein+zeaxanthin."}, "[4]": {"tested_on": "peripheral blood mononuclear cells (PBMC)", "test": "Peripheral blood mononuclear cell proliferation, whole blood, cats", "assay_type": "in vivo, Tabby cats", "experimental": "Whole blood was used to analyze the mitogenic proliferative responsiveness of peripheral blood mononuclear cells (PBMC) to phytohemagglutinin (PHA), Con A and pokeweed mitogen (PWM) in order to mimic in vivo conditions. Heparinized whole blood was diluted 1:12 with RPMI-1640 containing 25 mM of Hepes, penicillin (100 U/mL) and streptomycin (100 μg/mL) (Sigma, St. Louis, Mo.) (hereafter termed complete medium). […] The mitogens were used at the following final concentrations previously determined to provide both maximal (the higher mitogen concentration) and suboptimal (the lower mitogen concentration) proliferation: PHA (1.25 and 0.25 μg/mL), Con A (2.5 and 0.5 μg/mL) or PWM (0.125 and 0.025 μg/mL). Tritiated thymidine uptake was measured by liquid scintillation and PBMC proliferation response was expressed as cpm of stimulated cultures corrected for cpm of unstimulated cultures."}, "IgG and IgM": {"tested_on": "IgG and IgM", "test": "Serum IgG and IgM by single radial immunodiffusion, dogs", "assay_type": "in vivo, Beagle dogs", "experimental": "Serum collected on weeks 0, 2, 4, 8 and 12 were analyzed for IgG and IgM concentrations by single radial immunodiffusion (SRID). In addition, all dogs were vaccinated with the polyvalent vaccine (Vanguard 5, Smithkline Beacham, West Chester, Pa.) on week 13 and again on week 15 to study the possible anamnestic effect of dietary lutein. Blood was collected weekly from week 13 through week 17. Goat antiserum to canine IgG (10%, whole molecule) or IgM (7.5%, μ chain specific) (ICN, Aurora, Ohio) was mixed with melted agarose (10 g/L in PBS; Sigma Chem. Co., St. Louis, Mo.) and the mixture solidified in SRID plates.\nDuplicate 5 μL volumes of serum or IgG (0, 2.88, 5.75, 11.5 and 23.0 mg/ml) or IgM (0, 0.25, 0.5, 1.0 and 2.0 mg/ml) standard were loaded into the wells. After incubating for 24 hours at room temperature in a humidified chamber, ring diameters were measured using a SRID reader (Transidyne General Corp., Ann Arbor, Mich.)."}, "Splenocytes": {"tested_on": "Splenocytes", "settings": "splenocytes from mice injected peritoneally; cited from earlier work"}, "[5]": {"settings": "throughout the experimental period"}}}
{"smiles": "CC1=C[C@H](O)CC(C)(C)[C@H]1/C=C/C(C)=C/C=C/C(C)=C/C=C/C=C(C)/C=C/C=C(C)/C=C/C1=C(C)C[C@@H](O)CC1(C)C", "note": "[lutein]", "values": [{"measurement": "Production of IL-2 by PHA-stimulated PBMC among dietary treatments", "setting": "IL-2 [1]; [5]", "value": "did not differ significantly"}, {"measurement": "Concentration of IL-2 in culture medium, average", "setting": "IL-2 [1]; throughout the study", "value": "15.7 ± 0.4", "unit": "ng/mL"}, {"measurement": "IL-2 production", "setting": "IL-2 [2]; [5]", "value": "no significant differences"}, {"measurement": "Average concentration of IL-2 in Con A-stimulated cultures", "setting": "IL-2 [2]; throughout the study", "value": "15.1 ± 0.79", "unit": "ng/mL"}, {"measurement": "Effect on plasma TBARS activity", "setting": "malondialdehyde", "value": "did not significantly influence"}, {"measurement": "Plasma TBARS, average", "setting": "malondialdehyde; across all diet groups and periods", "value": "20.3±0.2", "unit": "nmol MDA/L"}, {"measurement": "Plasma concentrations of lutein+zeaxanthin", "setting": "[3]; dogs fed 10 and 20 mg lutein, after week 2, more gradually", "value": "continued to increase"}, {"measurement": "Plasma lutein+zeaxanthin vs unsupplemented animals", "setting": "[3]; dogs, weeks 2 through 12, P<0.05", "value": "significantly higher"}, {"measurement": "Plasma concentrations of lutein+zeaxanthin", "setting": "[3]; lutein-supplemented dogs, after 2 weeks of feeding", "value": "increased rapidly"}, {"measurement": "Spontaneous proliferation by unstimulated PBMC", "setting": "[4]; cats", "value": "did not significantly influence"}, {"measurement": "PWM-stimulated PBMC proliferation (increased)", "setting": "[4]; cats fed 1 mg lutein, week 4, 0.025 μg/mL PWM", "value": "differences were significant"}, {"measurement": "PBMC proliferative response to Con A", "setting": "[4]; cats fed 10 mg lutein, Con A 2.5 μg/mL, week 4", "value": "significantly higher"}, {"measurement": "PWM-stimulated PBMC proliferation (increased)", "setting": "[4]; cats fed 1 and 10 mg lutein, week 4, 0.125 μg/mL PWM", "value": "differences were significant"}, {"measurement": "Tritiated thymidine uptake, average", "setting": "[4]; cats, 0.25 μg/mL PHA", "value": "1,934±147 cpm"}, {"measurement": "Tritiated thymidine uptake, average", "setting": "[4]; cats, 1.25 μg/mL PHA", "value": "6,464±504 cpm"}, {"measurement": "PBMC proliferative response to Con A", "setting": "[4]; cats, Con A 2.5 μg/mL, week 8 and 12", "value": "treatment differences were not observed"}, {"measurement": "PBMC proliferative response to Con A", "setting": "[4]; cats, suboptimal dose (0.5 μg/mL) of Con A", "value": "No significant treatment difference"}, {"measurement": "PHA-induced PBMC proliferation", "setting": "[4]; cats, throughout the study", "value": "no significant dietary effects"}, {"measurement": "Spontaneous proliferation by unstimulated PBMC, average", "setting": "[4]; cats, throughout the study", "value": "1,744±147 cpm"}, {"measurement": "Plasma IgG", "setting": "IgG and IgM; dogs fed 5 mg lutein, week 16, after revaccination on week 15, P<0.05", "value": "higher"}, {"measurement": "Plasma IgG", "setting": "IgG and IgM; dogs fed 20 mg lutein, week 17, after revaccination on week 15", "value": "higher"}, {"measurement": "Concentration of plasma IgM", "setting": "IgG and IgM; dogs, after revaccination", "value": "not changed"}, {"measurement": "Antibody response to T-dependent antigens", "setting": "Splenocytes", "value": "enhanced"}]}
